Results from US9328093B2, “Selective inhibitors of ubiquitin specific protease 7, the pharmaceutical compositions thereof and their therapeutic applications” (HYBRIGENICS SA, priority 2010, dated 2016).

molecular target: T1, USP8 (Homo sapiens, UniProt P40818); assay: USP8 activity assay (Ub-AMC substrate); type: biochemical; conditions: Ub-AMC 300 nM, USP8 1.36 nM
T1 construct: His (from pFastBac-HT vector) (N); made in house; host or cells: Sf9 or High Five insect cells, baculovirus
T1 sequence (P40818 1-1118): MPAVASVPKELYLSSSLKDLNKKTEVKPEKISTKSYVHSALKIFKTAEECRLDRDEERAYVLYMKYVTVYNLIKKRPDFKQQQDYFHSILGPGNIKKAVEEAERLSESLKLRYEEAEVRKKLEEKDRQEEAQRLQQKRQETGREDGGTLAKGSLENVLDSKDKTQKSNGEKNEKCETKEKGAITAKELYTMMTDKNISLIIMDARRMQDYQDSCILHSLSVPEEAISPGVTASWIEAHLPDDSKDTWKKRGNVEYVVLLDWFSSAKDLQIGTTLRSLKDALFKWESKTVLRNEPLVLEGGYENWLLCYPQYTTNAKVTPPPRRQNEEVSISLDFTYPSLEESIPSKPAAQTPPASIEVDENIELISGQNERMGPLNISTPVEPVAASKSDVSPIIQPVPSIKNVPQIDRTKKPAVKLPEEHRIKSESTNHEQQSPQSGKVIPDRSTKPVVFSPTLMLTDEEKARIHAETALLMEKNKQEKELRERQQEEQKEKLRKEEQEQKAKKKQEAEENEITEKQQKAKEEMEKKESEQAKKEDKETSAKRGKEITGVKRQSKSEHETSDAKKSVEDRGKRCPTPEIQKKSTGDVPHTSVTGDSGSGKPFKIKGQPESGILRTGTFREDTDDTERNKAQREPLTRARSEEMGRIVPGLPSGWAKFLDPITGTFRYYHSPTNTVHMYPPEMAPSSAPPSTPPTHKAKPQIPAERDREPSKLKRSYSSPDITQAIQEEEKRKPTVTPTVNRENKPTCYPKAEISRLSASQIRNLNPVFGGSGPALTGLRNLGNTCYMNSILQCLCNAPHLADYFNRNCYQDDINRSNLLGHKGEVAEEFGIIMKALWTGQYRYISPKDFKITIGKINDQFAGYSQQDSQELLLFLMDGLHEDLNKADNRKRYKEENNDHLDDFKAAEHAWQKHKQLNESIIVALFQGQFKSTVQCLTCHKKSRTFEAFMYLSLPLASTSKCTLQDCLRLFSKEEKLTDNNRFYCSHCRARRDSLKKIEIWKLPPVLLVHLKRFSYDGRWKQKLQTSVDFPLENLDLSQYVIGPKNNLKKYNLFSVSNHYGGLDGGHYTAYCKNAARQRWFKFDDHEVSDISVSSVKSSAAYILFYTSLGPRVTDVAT
From the text: The cDNA encoding USP8 was obtained by PCR amplification from placenta mRNA. USP8 cDNA was subcloned by PCR into a baculovirus expression vector (pFastBac-HT; Invitrogen). A cDNA encoding a mutated USP8 was generated by mutagenic PCR. The corresponding protein encodes a cysteine to alanine substitution at residue 786. The sequences were ascertained by sequencing of the entire open reading frame. Bacmids encoding USP8 were generated following DH10bac transposition. The corresponding bacmids were transfected into insect cells (Sf9). Viruses were recovered from culture supernatant and amplified twice. Insect cells (Sf9 or High Five; Invitrogen) were infected for 72 hours. Total cell lysates were harvested and lyzed in lysis buffer (Tris HCl 50 mM pH7.6; 0.75% NP40; 500 mM NaCl; 10% glycerol; 1 mM DTT; 10 mM imidazole; Protease Inhibitor Cocktail; AEBSF 20 μg·ml^−1; Aprotinin 10 μg·ml^−1). Proteins were affinity purified on metal affinity resins (Talon Metal affinity resin; BD Biosciences). Bound materials were extensively washed in wash buffer (50 mM Sodium Phosphate pH 7.0; 300 mM NaCl; 10 mM imidazole; 0.5% Triton X-100; 10% glycerol) and eluted from the resin in 250 mM imidazole-containing wash buffer. Proteins were dialyzed in dialysis buffer (Tris HCl pH 7.6 20 mM; NaCl 200 mM; DTT 1 mM; EDTA 1 mM; 10% Glycerol). Proteins purifications were analyzed on 4-12% NuPAGE (Invitrogen).
USP8 was diluted in USP buffer (50 mM Tris HCl; 0.5 mM EDTA; 5 mM DTT; 0.01% Triton X-100; Bovine Serum Albumin 0.05 mg·ml^−1 pH8.8). Compounds stocks (100 mM) were stored at −20° C. in DMSO. Compounds were tested at different concentrations: from 200 μM to 91 nM.
Reactions were performed as duplicates in Black 384 well plates (small volume microplates; Greiner; 10 μl final reaction volume). The substrate concentration for USP8 was 300 nM Ub-AMC (Boston Biochem). The concentration of the enzyme (USP8) in specificity assays was 1.36 nM. The concentrations were determined in order to perform specificity assays under initial velocities at fixed substrate concentration. Compounds were pre-incubated with enzymes for 30 minutes at 25° C. Reactions were initiated by addition of substrate to the plates containing the enzymes (+/− compounds) diluted in assay buffer. Reactions were incubated for 60 minutes at 37° C. Reactions were stopped by adding acetic acid (100 mM final). Readings were performed on a Pherastar Fluorescent Reader (BMG). λ Emission 380 nm: λ Excitation=460 nm. Data (mean values +/− standard deviation) were analyzed as % of control (no compound) and plotted as percentage versus the Log of the compound concentration using GraphPad (Prism). Data were fitted to a sigmoidal model (variable slope).

| Compound | IC50 [µM] |
| --- | --- |
| CC1CCCCN1CCCNC(=O)c1ccc2c(Cl)c3c(nc2c1)CCCC3 (stereo not drawn) [Example 20, 9-chloro-N-(3-(2-methylpiperidin-1-yl)propyl)-516,7,8-tetrahydroacridine-3-carboxamide] | > 200 |
| O=C(NCc1ccc(CN2CCCC2)cc1)c1ccc2c(Cl)c3c(nc2c1)CCCC3 [Example 21, 9-chloro-N-(4-(pyrrolidin-1-ylmethyl)benzyl)-5,6,7,8-tetrahydroacridine-3-carboxamide] | > 200 |
| COc1ccc(CN2CCC(CNC(=O)c3ccc4c(Cl)c5c(nc4c3)CCCC5)CC2)cc1 [Example 22, 9-chloro-N-((1-(4-methoxybenzyl)piperidin-4-yl)methyl)-5,6,7,8-tetrahydroacridine-3-carboxamide] | > 200 |
| CN(C)c1ccc(CN2CCC(CNC(=O)c3ccc4c(Cl)c5c(nc4c3)CCCC5)CC2)cc1 [Example 23] | > 200 |
| O=C(NCC(CN1CCCC1)C(O)c1ccccc1)c1ccc2c(Cl)c3c(nc2c1)CCCC3 (stereo not drawn) [Example 25, 9-chloro-N-(3-hydroxy-3-phenyl-2-pyrrolidin-1-ylmethylpropyl)-5,6,7,8-tetrahydroacridine-3-carboxamide] | > 200 |

The next lines start with the values.

| IC50 [µM] | Compound |
| --- | --- |
| > 200 | CN1CCCC1CCNC(=O)c1ccc2c(Cl)c3c(nc2c1)CCCC3 (stereo not drawn) [Example 17, 9-chloro-N-(2-(1-methylpyrrolidin-2-yl)ethyl)-5,6,7,8-tetrahydroacridino-3-carboxamide] |
| > 200 | O=C(NCc1cccc(CN2CCCC2)c1)c1ccc2c(Cl)c3c(nc2c1)CCCC3 [Example 18, 9-chloro-N-(3-(pyrrolidin-1-ylmethyl)benzyl)-5,6,7,8-tetrahydroacridine-3-carboxamide] |
| > 200 | O=C(Nc1cccc(CN2CCCC2)c1)c1ccc2c(Cl)c3c(nc2c1)CCCC3 [Example 19, 9-chloro-N-(3-(pyrrolidin-1-ylmethyl)phenyl)-5.6,7,8-tetrahydroacridine-3-carboxamide] |
| ~200 | O=C(NCC1CCNCC1)c1ccc2c(Cl)c3c(nc2c1)CCCC3 [Example 24, 9-chloro-N-((piperidin-4-yl)methyl)-5,6,7,8-tetrahydroacridine-3-carboxamide] |
